# According to patent publication US8436154B2, “Crystallizing method of erythromycin” (Sunshine Lake Pharma Co., Ltd., priority 2008, dated 2013):
# Experiment: microbiological titre of erythromycin crystals
# Assay type: cell-based
# Details: dried erythromycin crystals recrystallized from dichloromethane-containing solvent
row,Substance,microbiological titre [μ/mg]
1,erythromycin [Example 1],948
2,erythromycin [Example 2],955
3,erythromycin [Example 3],941
4,erythromycin [Example 4],946
5,erythromycin [Example 5],943

# Experiment: not given
# Details: erythromycin crystals of CN1513864A, recrystallized from acetone and water; cited from earlier work
row,Substance,microbiological titre
1,erythromycin [erythromycin crystals],less than 930 μ/mg
